Columns and labels:
Type in all cases: in vivo
[1] = test system: Abutilon theophrasti; test: Weeding effect in post-emergence stage; settings: 250 g/ha; 2 leaf stage; 15 days after application; fresh weight control rate
Procedure, shortened: (§1)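 Pot-grown weeds sprayed post-emergence at the 2-leaf stage, 2 weeks after sowing, with compound in acetone/Tween 80 plus 1.5 L/ha methyl oleate concentrate at 500–15 g/ha. Fresh-weight growth control scored after 15 days in greenhouse, mean of three replicates, graded levels 0–5 (5: >85%, 0: <5%).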

[2] = test system: Amaranthus retroflexus; test: Weeding effect in post-emergence stage; settings: 250 g/ha; 2 leaf stage; 15 days after application; fresh weight control rate
Procedure, shortened: as §1

[3] = test system: Digitaria sanguinalis; test: Weeding effect in post-emergence stage; settings: 250 g/ha; 2 leaf stage; 15 days after application; fresh weight control rate
Procedure, shortened: as §1

[4] = test system: Echinochloa crusgali; test: Weeding effect in post-emergence stage; settings: 250 g/ha; 2 leaf stage; 15 days after application; fresh weight control rate
Procedure, shortened: as §1

[5] = test system: Setaria viridis; test: Weeding effect in post-emergence stage; settings: 250 g/ha; 2 leaf stage; 15 days after application; fresh weight control rate
Procedure, shortened: as §1

[6] = test system: key weeds such as Digitaria sanguinalis, Leptochloa chinensis; test: Comparison experiment (post-emergence, Tables 4-7), herbicidal activity on weeds not listed separately; settings: dose of 125, 60, 30, 15 g/ha
Source text: (§2) The above growth control rates are fresh weight control rates.
(§3) Experiment on weeding effect in post-emergence stage: monocotyledonous and dicotyledonous weed seeds (Descurainia sophia, Capsella bursa-pastoris, Galium aparine, Stellaria media, Lithospermum arvense, Rorippa indica, Alopecurus aequalis, Beckmannia syzigachne, Sclerochloa dura, Phleum paniculatum, Bromus japonicus, Aegilops tauschii, Phalaris arundinacea, Amaranthus retroflexus, Chenopodiaceae, Commelina communis, Sonchus arvensis, convolvulus arvensis, Cirsium setosum, Solanum nigrum, Acalypha australis, Digitaria sanguinalis, Echinochloa crusgalli, Setaria viridis, Setaria glauca, Leptochloa chinensis, Monochoria vaginalis, Sagittaria trifolia, Scirpus juncoides, Cyperus rotundus, Cyperus iria, Cyperus difformis, Fimbristylis, Portulaca oleracea, Xanthium sibiricum, Pharbitis nil) and major crop seeds (wheat, corn, rice, soybean, cotton, oilseed rape, millet, sorghum, potato, sesame, ricinus) were placed in plastic pots filled with soil, then covered with 0.5-2 cm of soil, allowed to grow in a good greenhouse environment. After 2 weeks of sowing, the test plants were treated in the 2 leaf stage. The tested compounds of the present invention were respectively dissolved in acetone, then added with Tween 80 and 1.5 liter/ha of emulsifiable concentrate of methyl oleate as synergist, diluted with a certain amount of water to obtain a solution with a certain concentration, and sprayed with a spray tower onto the plants. After the application, the plants were cultured for 15 days in the greenhouse, and then the experimental results of the weeding were counted. The doses of the used compounds were 500, 250, 125, 60, 30, 15 g/ha, and the averages were obtained by repeating for three times.
(§4) If there is no clear marker, the post-seedling test conditions are the same as above, and the experimental results are shown in Tables 4-7.

[7] = test system: rice and other crops; test: Comparison experiment (post-emergence, Tables 4-7), crop safety; settings: dose of 125, 60, 30, 15 g/ha
Source text: as §2, §3, §4

Cc1nnc(NC(=O)c2ccc(C(F)(F)F)c([S@+]([O-])CCC3CC3)c2F)o1 [Compound 17]
weeding effect in post-emergence stage, activity level (growth control rate), Abutilon theophrasti [1]: 5 (Level 5: growth control rate is above 85%)
weeding effect in post-emergence stage, activity level (growth control rate), Amaranthus retroflexus [2]: 5 (Level 5: growth control rate is above 85%)
weeding effect in post-emergence stage, activity level (growth control rate), Digitaria sanguinalis [3]: 5 (Level 5: growth control rate is above 85%)
weeding effect in post-emergence stage, activity level (growth control rate), Echinochloa crusgali [4]: 5 (Level 5: growth control rate is above 85%)
weeding effect in post-emergence stage, activity level (growth control rate), Setaria viridis [5]: 5 (Level 5: growth control rate is above 85%)
activity to key weeds such as Digitaria sanguinalis, Leptochloa chinensis compared with the corresponding racemate or S configuration [6]: better activity
safety to rice and other crops compared with the corresponding racemate or S configuration [7]: higher safety

C=CCC[S@@+]([O-])c1c(C(F)(F)F)ccc(C(=O)Nc2nnc(C)o2)c1F [Compound 20]
weeding effect in post-emergence stage, activity level (growth control rate), Abutilon theophrasti [1]: 5 (Level 5: growth control rate is above 85%)
weeding effect in post-emergence stage, activity level (growth control rate), Amaranthus retroflexus [2]: 5 (Level 5: growth control rate is above 85%)
weeding effect in post-emergence stage, activity level (growth control rate), Digitaria sanguinalis [3]: 5 (Level 5: growth control rate is above 85%)
weeding effect in post-emergence stage, activity level (growth control rate), Echinochloa crusgali [4]: 5 (Level 5: growth control rate is above 85%)
weeding effect in post-emergence stage, activity level (growth control rate), Setaria viridis [5]: 5 (Level 5: growth control rate is above 85%)
activity to key weeds such as Digitaria sanguinalis, Leptochloa chinensis compared with the corresponding racemate or S configuration [6]: better activity
safety to rice and other crops compared with the corresponding racemate or S configuration [7]: higher safety

Cc1nnc(NC(=O)c2ccc(C(F)(F)F)c([S@+]([O-])CC=C(Cl)Cl)c2F)o1 [Compound 40]
weeding effect in post-emergence stage, activity level (growth control rate), Abutilon theophrasti [1]: 5 (Level 5: growth control rate is above 85%)
weeding effect in post-emergence stage, activity level (growth control rate), Amaranthus retroflexus [2]: 5 (Level 5: growth control rate is above 85%)
weeding effect in post-emergence stage, activity level (growth control rate), Digitaria sanguinalis [3]: 5 (Level 5: growth control rate is above 85%)
weeding effect in post-emergence stage, activity level (growth control rate), Echinochloa crusgali [4]: 5 (Level 5: growth control rate is above 85%)
weeding effect in post-emergence stage, activity level (growth control rate), Setaria viridis [5]: 5 (Level 5: growth control rate is above 85%)
activity to key weeds such as Digitaria sanguinalis, Leptochloa chinensis compared with the corresponding racemate or S configuration [6]: better activity
safety to rice and other crops compared with the corresponding racemate or S configuration [7]: higher safety

Cc1nnc(NC(=O)c2ccc(C(F)(F)F)c([S@+]([O-])CCC#N)c2F)o1 [Compound 52]
weeding effect in post-emergence stage, activity level (growth control rate), Abutilon theophrasti [1]: 5 (Level 5: growth control rate is above 85%)
weeding effect in post-emergence stage, activity level (growth control rate), Amaranthus retroflexus [2]: 5 (Level 5: growth control rate is above 85%)
weeding effect in post-emergence stage, activity level (growth control rate), Digitaria sanguinalis [3]: 5 (Level 5: growth control rate is above 85%)
weeding effect in post-emergence stage, activity level (growth control rate), Echinochloa crusgali [4]: 5 (Level 5: growth control rate is above 85%)
weeding effect in post-emergence stage, activity level (growth control rate), Setaria viridis [5]: 5 (Level 5: growth control rate is above 85%)
activity to key weeds such as Digitaria sanguinalis, Leptochloa chinensis compared with the corresponding racemate or S configuration [6]: better activity
safety to rice and other crops compared with the corresponding racemate or S configuration [7]: higher safety

Cc1nnc(NC(=O)c2ccc(C(F)(F)F)c([S@+]([O-])CCO)c2F)o1 [Compound 54]
weeding effect in post-emergence stage, activity level (growth control rate), Abutilon theophrasti [1]: 5 (Level 5: growth control rate is above 85%)
weeding effect in post-emergence stage, activity level (growth control rate), Amaranthus retroflexus [2]: 5 (Level 5: growth control rate is above 85%)
weeding effect in post-emergence stage, activity level (growth control rate), Digitaria sanguinalis [3]: 5 (Level 5: growth control rate is above 85%)
weeding effect in post-emergence stage, activity level (growth control rate), Echinochloa crusgali [4]: 5 (Level 5: growth control rate is above 85%)
weeding effect in post-emergence stage, activity level (growth control rate), Setaria viridis [5]: 5 (Level 5: growth control rate is above 85%)
activity to key weeds such as Digitaria sanguinalis, Leptochloa chinensis compared with the corresponding racemate or S configuration [6]: better activity
safety to rice and other crops compared with the corresponding racemate or S configuration [7]: higher safety

CNCC[S@@+]([O-])c1c(C(F)(F)F)ccc(C(=O)Nc2nnc(C)o2)c1F [Compound 67]
weeding effect in post-emergence stage, activity level (growth control rate), Abutilon theophrasti [1]: 5 (Level 5: growth control rate is above 85%)
weeding effect in post-emergence stage, activity level (growth control rate), Amaranthus retroflexus [2]: 5 (Level 5: growth control rate is above 85%)
weeding effect in post-emergence stage, activity level (growth control rate), Digitaria sanguinalis [3]: 5 (Level 5: growth control rate is above 85%)
weeding effect in post-emergence stage, activity level (growth control rate), Echinochloa crusgali [4]: 5 (Level 5: growth control rate is above 85%)
weeding effect in post-emergence stage, activity level (growth control rate), Setaria viridis [5]: 5 (Level 5: growth control rate is above 85%)
activity to key weeds such as Digitaria sanguinalis, Leptochloa chinensis compared with the corresponding racemate or S configuration [6]: better activity
safety to rice and other crops compared with the corresponding racemate or S configuration [7]: higher safety

COC[S+]([O-])c1c(C(F)(F)F)ccc(C(=O)Nc2nnc(C)o2)c1F (stereo not drawn) [Compound 69]
weeding effect in post-emergence stage, activity level (growth control rate), Abutilon theophrasti [1]: 5 (Level 5: growth control rate is above 85%)
weeding effect in post-emergence stage, activity level (growth control rate), Amaranthus retroflexus [2]: 5 (Level 5: growth control rate is above 85%)
weeding effect in post-emergence stage, activity level (growth control rate), Digitaria sanguinalis [3]: 5 (Level 5: growth control rate is above 85%)
weeding effect in post-emergence stage, activity level (growth control rate), Echinochloa crusgali [4]: 5 (Level 5: growth control rate is above 85%)
weeding effect in post-emergence stage, activity level (growth control rate), Setaria viridis [5]: 5 (Level 5: growth control rate is above 85%)
activity to key weeds such as Digitaria sanguinalis, Leptochloa chinensis compared with the corresponding racemate or S configuration [6]: better activity
safety to rice and other crops compared with the corresponding racemate or S configuration [7]: higher safety

CC(C)=NOCC[S@@+]([O-])c1c(C(F)(F)F)ccc(C(=O)Nc2nnc(C)o2)c1F [Compound 166]
weeding effect in post-emergence stage, activity level (growth control rate), Abutilon theophrasti [1]: 5 (Level 5: growth control rate is above 85%)
weeding effect in post-emergence stage, activity level (growth control rate), Amaranthus retroflexus [2]: 5 (Level 5: growth control rate is above 85%)
weeding effect in post-emergence stage, activity level (growth control rate), Digitaria sanguinalis [3]: 5 (Level 5: growth control rate is above 85%)
weeding effect in post-emergence stage, activity level (growth control rate), Echinochloa crusgali [4]: 5 (Level 5: growth control rate is above 85%)
weeding effect in post-emergence stage, activity level (growth control rate), Setaria viridis [5]: 5 (Level 5: growth control rate is above 85%)
activity to key weeds such as Digitaria sanguinalis, Leptochloa chinensis compared with the corresponding racemate or S configuration [6]: better activity
safety to rice and other crops compared with the corresponding racemate or S configuration [7]: higher safety

Cc1nnc(NC(=O)c2ccc(C(F)(F)F)c([S@@+]([O-])C[S+](C)[O-])c2F)o1 (stereo partly drawn) [Compound 205]
weeding effect in post-emergence stage, activity level (growth control rate), Abutilon theophrasti [1]: 5 (Level 5: growth control rate is above 85%)
weeding effect in post-emergence stage, activity level (growth control rate), Amaranthus retroflexus [2]: 5 (Level 5: growth control rate is above 85%)
weeding effect in post-emergence stage, activity level (growth control rate), Digitaria sanguinalis [3]: 5 (Level 5: growth control rate is above 85%)
weeding effect in post-emergence stage, activity level (growth control rate), Echinochloa crusgali [4]: 5 (Level 5: growth control rate is above 85%)
weeding effect in post-emergence stage, activity level (growth control rate), Setaria viridis [5]: 5 (Level 5: growth control rate is above 85%)
activity to key weeds such as Digitaria sanguinalis, Leptochloa chinensis compared with the corresponding racemate or S configuration [6]: better activity
safety to rice and other crops compared with the corresponding racemate or S configuration [7]: higher safety
